Data on one compound can be found in patent publication US9186296B2, “Containers for compositions comprising meloxicam” (Boehringer Ingelheim Vetmedica GmbH, priority 2009, dated 2015).

A short description of this series: long-term stability programme according to VICH guideline 3 (storage in bottles of different materials). Type of series: physicochemical. As to conditions: PP bottles compared with bottles made of HDPE or LDPE; FIG. 4, 5, 6. The procedure:
The preferred pharmaceutical composition filled into containers made of the different types of packaging has been subject to a long-term stability programme according to the conditions as described in the VICH guideline 3. The conditions used for storage were 25° C./60% r.h. (r.h.=relative humidity), 30° C./70% r.h., and 40° C. /75% r.h.
The stability studies of a 0.5 mg/ml suspension were carried out with 3 ml and 4 ml of the suspension being filled into 5 ml HDPE bottles. […] This has not been observed before for any of the suspensions (1.5 mg/ml or 0.5 mg/ml) or the different fill volumes. The shelf-life of the 1.5 mg/ml suspension with a 10 ml fill (in a 25 ml bottle) is for example at least 18 months. An acceptable shelf-life for commercial use of the product with a volume size for the treatment of cats for a few days (up to five days) cannot be established by using HDPE as the container material.
Thus, polypropylene is a suitable material for holding small volumes of oral suspensions comprising meloxicam and sodium benzoate as preservative. The suitability of PP is further shown by comparison with the unsuitable negative reference containers made of PET and PC, see FIGS. 1, 3, and 4.

For the compound `O=C([O-])c1ccccc1.[Na+]` [sodium benzoate], the “decrease of sodium benzoate content over 18 months or at least 18 months” value is “significantly lower in PP bottles than in bottles made of either HDPE or LDPE”.
